Test results from the Kinase Knowledgebase extract (Sharma et al. 2016).

Experiments:
Experiment in all cases: Enzyme Assay
PIK3CA (human) = PIK3CA (human) (UniProt P42336)
PIK3CB (Human) = PIK3CB (Human) (UniProt P42338)
PIK3CD (Human) = PIK3CD (Human) (UniProt O00329)
PIK3CG (human) = PIK3CG (human) (UniProt P48736)
Sequence of PIK3CG (human) (P48736 whole entry, looked up): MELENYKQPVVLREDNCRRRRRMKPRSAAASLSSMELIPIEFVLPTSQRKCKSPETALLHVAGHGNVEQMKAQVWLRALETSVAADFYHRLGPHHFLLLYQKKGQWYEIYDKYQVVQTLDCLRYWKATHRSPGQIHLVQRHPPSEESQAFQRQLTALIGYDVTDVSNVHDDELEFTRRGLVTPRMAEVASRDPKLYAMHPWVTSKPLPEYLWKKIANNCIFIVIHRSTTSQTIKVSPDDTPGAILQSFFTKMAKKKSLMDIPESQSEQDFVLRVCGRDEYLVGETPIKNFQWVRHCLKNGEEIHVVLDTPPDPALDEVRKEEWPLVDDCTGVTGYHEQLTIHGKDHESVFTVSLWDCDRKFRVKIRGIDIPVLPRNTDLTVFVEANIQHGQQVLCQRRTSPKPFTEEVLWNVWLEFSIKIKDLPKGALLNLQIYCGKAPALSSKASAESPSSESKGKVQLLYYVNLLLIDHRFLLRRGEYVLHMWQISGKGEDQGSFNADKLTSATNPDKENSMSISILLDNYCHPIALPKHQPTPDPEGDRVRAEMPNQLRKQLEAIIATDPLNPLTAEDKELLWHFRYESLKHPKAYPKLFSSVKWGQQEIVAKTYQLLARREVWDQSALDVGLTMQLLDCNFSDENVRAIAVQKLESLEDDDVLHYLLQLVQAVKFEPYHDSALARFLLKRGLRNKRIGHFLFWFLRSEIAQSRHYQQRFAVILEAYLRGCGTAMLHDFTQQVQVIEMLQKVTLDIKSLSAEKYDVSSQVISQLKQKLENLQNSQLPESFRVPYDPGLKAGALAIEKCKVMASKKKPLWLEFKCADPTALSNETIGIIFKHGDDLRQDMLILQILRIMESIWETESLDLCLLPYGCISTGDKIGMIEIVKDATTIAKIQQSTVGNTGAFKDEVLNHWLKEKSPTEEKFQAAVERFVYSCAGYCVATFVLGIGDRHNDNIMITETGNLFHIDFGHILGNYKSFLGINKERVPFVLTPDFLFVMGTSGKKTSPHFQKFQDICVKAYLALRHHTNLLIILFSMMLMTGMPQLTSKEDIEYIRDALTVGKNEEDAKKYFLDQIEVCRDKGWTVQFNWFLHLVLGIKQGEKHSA

Sequence of PIK3CB (Human) (P42338 whole entry, looked up): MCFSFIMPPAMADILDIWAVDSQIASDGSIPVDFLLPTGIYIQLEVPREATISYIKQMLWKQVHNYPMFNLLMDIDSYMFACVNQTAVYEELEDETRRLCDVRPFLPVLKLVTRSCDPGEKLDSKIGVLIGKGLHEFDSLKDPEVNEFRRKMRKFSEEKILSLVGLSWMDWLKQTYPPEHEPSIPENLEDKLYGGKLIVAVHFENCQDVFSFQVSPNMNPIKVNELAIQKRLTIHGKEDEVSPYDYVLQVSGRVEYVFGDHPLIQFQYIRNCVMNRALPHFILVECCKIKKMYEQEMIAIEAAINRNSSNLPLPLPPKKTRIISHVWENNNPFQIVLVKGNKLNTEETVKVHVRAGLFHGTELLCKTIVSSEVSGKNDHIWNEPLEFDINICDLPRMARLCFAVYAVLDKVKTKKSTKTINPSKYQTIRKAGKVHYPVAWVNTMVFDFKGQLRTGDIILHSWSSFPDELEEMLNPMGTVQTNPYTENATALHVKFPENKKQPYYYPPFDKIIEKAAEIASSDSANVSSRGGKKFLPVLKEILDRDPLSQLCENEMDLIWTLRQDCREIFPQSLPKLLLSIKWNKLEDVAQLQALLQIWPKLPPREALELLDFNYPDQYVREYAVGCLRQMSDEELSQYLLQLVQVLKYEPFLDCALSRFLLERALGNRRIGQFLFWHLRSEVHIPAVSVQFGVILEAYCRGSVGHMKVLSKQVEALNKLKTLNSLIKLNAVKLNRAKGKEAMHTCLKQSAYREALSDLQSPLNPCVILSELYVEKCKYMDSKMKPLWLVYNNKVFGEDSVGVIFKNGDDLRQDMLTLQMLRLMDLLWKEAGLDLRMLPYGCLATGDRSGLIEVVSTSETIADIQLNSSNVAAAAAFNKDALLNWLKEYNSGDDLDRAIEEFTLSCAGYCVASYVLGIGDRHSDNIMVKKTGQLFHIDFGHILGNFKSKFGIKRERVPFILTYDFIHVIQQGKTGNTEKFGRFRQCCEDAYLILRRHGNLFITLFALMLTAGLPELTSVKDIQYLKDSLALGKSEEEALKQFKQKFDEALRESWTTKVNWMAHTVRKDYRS
Sequence of PIK3CD (Human) (O00329 whole entry, looked up): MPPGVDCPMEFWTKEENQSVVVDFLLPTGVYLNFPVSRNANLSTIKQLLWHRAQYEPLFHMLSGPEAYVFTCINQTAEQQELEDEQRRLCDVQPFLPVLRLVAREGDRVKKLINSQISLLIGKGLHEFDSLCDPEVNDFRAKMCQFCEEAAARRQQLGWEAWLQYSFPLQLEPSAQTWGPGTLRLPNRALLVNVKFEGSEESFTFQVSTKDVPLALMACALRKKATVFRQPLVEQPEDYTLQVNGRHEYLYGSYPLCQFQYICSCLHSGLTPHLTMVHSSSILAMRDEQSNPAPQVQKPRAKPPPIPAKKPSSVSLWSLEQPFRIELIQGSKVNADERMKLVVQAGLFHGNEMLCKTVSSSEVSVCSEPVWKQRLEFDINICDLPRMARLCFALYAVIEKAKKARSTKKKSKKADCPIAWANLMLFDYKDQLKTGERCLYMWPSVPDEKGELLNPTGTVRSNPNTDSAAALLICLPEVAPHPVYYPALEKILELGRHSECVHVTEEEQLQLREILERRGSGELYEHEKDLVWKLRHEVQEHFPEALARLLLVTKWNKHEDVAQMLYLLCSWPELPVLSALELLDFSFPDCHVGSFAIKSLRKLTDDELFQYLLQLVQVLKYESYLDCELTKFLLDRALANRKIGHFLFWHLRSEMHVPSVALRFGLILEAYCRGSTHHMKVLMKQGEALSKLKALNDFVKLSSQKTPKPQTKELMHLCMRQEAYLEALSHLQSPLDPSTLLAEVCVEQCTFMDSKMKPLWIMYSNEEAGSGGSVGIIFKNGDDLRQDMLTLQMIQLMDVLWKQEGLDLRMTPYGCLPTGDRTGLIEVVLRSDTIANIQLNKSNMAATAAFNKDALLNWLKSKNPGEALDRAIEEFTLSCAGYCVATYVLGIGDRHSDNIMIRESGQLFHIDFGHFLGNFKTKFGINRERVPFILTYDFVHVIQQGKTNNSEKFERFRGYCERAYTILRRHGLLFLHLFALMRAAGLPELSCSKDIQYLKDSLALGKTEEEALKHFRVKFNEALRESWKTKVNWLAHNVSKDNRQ
Sequence of PIK3CA (human) (P42336 whole entry, looked up): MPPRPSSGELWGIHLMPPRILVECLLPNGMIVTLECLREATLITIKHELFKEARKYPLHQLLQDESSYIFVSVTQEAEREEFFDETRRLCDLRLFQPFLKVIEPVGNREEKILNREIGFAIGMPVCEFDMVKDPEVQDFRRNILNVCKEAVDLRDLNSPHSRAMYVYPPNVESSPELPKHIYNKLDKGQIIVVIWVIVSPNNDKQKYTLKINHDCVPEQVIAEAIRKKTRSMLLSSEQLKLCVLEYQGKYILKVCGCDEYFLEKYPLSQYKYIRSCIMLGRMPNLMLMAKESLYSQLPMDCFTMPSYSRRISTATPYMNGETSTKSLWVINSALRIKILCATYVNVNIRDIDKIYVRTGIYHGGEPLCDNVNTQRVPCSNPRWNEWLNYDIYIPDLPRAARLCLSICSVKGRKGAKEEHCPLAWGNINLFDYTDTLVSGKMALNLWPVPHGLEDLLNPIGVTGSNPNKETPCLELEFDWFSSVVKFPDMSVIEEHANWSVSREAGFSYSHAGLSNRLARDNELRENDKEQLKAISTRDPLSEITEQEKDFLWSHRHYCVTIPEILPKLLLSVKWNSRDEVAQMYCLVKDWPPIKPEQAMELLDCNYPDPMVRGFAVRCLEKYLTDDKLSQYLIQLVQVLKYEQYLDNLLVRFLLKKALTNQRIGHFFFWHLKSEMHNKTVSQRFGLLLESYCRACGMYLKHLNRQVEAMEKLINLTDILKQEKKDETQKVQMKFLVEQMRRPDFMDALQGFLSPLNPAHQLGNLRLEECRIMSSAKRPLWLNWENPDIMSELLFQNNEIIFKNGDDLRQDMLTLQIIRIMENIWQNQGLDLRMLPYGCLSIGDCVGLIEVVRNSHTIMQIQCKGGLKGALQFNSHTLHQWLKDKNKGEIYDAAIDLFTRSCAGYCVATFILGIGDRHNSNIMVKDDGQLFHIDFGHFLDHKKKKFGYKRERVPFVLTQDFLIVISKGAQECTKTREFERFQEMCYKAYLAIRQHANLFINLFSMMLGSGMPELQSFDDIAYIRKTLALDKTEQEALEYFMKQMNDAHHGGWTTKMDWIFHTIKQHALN

Structure (SMILES) | IC50 (PIK3CA (human)) [µM] | IC50 (PIK3CB (Human)) [µM] | IC50 (PIK3CD (Human)) [µM] | IC50 (PIK3CG (human)) [µM]
Cc1ccccc1-n1c(Cn2nc(C#CC3CC3)c3c(N)ncnc32)cc2cccc(C)c2c1=O | > 10 | > 10 | 0.1 to 1 | 0.1 to 1
Cc1cccc2cc(C(C)Nc3ncnc4[nH]cnc34)n(-c3c(F)cccc3F)c(=O)c12 (centres undefined) | > 10 | > 10 | < 0.1 | 0.1 to 1
Cc1cccc2cc([C@H](C)Nc3nc(F)nc4[nH]cnc34)n(C3CC3)c(=O)c12 |  | < 0.1 | < 0.1 | 0.1 to 1
Cc1cccc2cc([C@H](C)Nc3cc(N)nc(N)n3)n(-c3ccccc3)c(=O)c12 | > 10 | > 10 | 0.1 to 1 | 0.1 to 1
Cc1cccc2cc([C@H](C)Nc3nc(N)ncc3Cl)n(C3CC3)c(=O)c12 | > 10 | 0.1 to 1 | < 0.1 | 0.1 to 1
Cc1cccc2cc(C(C)Nc3ncnc4[nH]cnc34)n(-c3cc(F)cc(F)c3)c(=O)c12 (centres undefined) | > 10 | > 10 | < 0.1 | 0.1 to 1
Cc1cccc2cc([C@H](C)Nc3nc(N)ncc3F)n(-c3ccccc3)c(=O)c12 | > 10 | > 10 | < 0.1 | 0.1 to 1
CC(=O)Nc1nc2cc(-c3nn(Cc4cc5cccc(C)c5c(=O)n4-c4ccccc4)c4ncnc(N)c34)ccc2s1 | > 10 | > 10 | 0.1 to 1 | 0.1 to 1
Cc1cccc(C)c1-n1c(CNc2ncnc3[nH]cnc23)cc2cccc(C)c2c1=O | > 10 | > 10 | < 0.1 | 0.1 to 1
Cc1cccc2cc([C@H](C)Nc3nc(Cl)nc4[nH]cnc34)n(C3CC3)c(=O)c12 | > 10 | < 0.1 | < 0.1 | 0.1 to 1
Cc1cccnc1-n1c(Cn2nc(-c3cc(O)cc(F)c3)c3c(N)ncnc32)cc2ccccc2c1=O | > 10 | > 10 |  | 0.1 to 1
Cc1ccccc1-n1c(Cn2nc(-c3ccc(F)cc3)c3c(N)ncnc32)cc2cccc(C)c2c1=O | > 10 | > 10 |  | 0.1 to 1
Cc1ccccc1-n1c(Cn2nc(C#CCO)c3c(N)ncnc32)cc2cccc(C)c2c1=O | > 10 | > 10 |  | 0.1 to 1
Cc1cccc2cc([C@H](C)Nc3ncnc4[nH]nc(Cl)c34)n(C3CC3)c(=O)c12 | > 10 | 0.1 to 1 | < 0.1 | 0.1 to 1
Cc1cccc2cc(Cn3nc(I)c4c(N)ncnc43)n(-c3ccccc3OCCN3CCOCC3)c(=O)c12 | > 10 | > 10 |  | 0.1 to 1
Cc1ccccc1-n1c(Cn2nc(C=CC(=O)N3CCOCC3)c3c(N)ncnc32)cc2cccc(C)c2c1=O | > 10 | > 10 | 0.1 to 1 | > 10
Cc1cccc2cc([C@H](C)Nc3ncnc4ccccc34)n(-c3ccccc3)c(=O)c12 | > 10 | > 10 | < 0.1 | 0.1 to 1
Cc1cccc2cc(Cn3nc(-c4cccc(O)c4)c4c(N)ncnc43)n(-c3ccccc3OCCN3CCOCC3)c(=O)c12 | > 10 | > 10 |  | 0.1 to 1
Cc1cccc2cc(Cn3nc(-c4cccc(O)c4)c4c(N)ncnc43)n(-c3ccccc3F)c(=O)c12 | > 10 | > 10 |  | 0.1 to 1
